As usually defined, the LD50 is the dose at which mortality reaches 50%. Broadly, the MIC is the lowest concentration that inhibits growth of the organism.

For series [1] the following is noted: rats, i.v.; cited from earlier work.
Series [2] deals with K. pneumoniae N11-2218. Description: Mouse systemic infection, organ bacterial load. Format: in vivo, CD1 mice. The settings on record: meropenem alone, doses below 50 mg/kg. From the text: (§1) All animals were housed in specific pathogen-free units in the Central Animal Facility at McMaster University. All experimental protocols were approved by, and performed in accordance with the McMaster Animal Research Ethics Board. Female CD1 mice were purchased from Charles River.
(§2) Mice were infected intraperitoneally (ip) with a dose of 2×10^6 colony forming units (cfu) of Klebsiella pneumoniae N11-2218 for all organ bacterial load experiments, or with a dose of 5×10^7cfu for all survival experiments. For all organ bacterial load experiments, mice were euthanized 48 hours post infection, and spleen and liver were harvested. Organs were placed into 1 mL sterile PBS on ice, and then homogenized (Mixer Mill 400; Retsch). Organ homogenates were then serially diluted in PBS, and plated on Brilliant Green agar (Oxoid) for cfu enumeration. For survival curves, mice were monitored for endpoint. For all experiments, mice were treated 30 minutes post infection with a specified subcutaneous dose of either PBS, meropenem, AM-A inhibitor, or a combination of both antibiotic and inhibitor.

The test system of series [3] is K. pneumoniae N11-2218. Description: Mouse lethal systemic infection, survival. It is filed as in vivo, CD1 mice. Conditions: monotherapy (alone).
Text: as §1, §2

Series [4] has as its system K. pneumoniae N11-2218. The series can be described thus: Microdilution checkerboard / MIC. Format: cell-based, Klebsiella pneumoniae. Conditions: meropenem alone. As to the method: FIC values were determined by standard methods^27 setting up checkerboards with 8 concentrations of each meropenem and AM-A in serial ½ dilutions. Experiments were done in duplicate and the mean used for calculation. The MIC for each compound was the lowest concentration of compound showing no growth. The FIC for each compound was calculated as the concentration of the compound in the presence of co-compound for a well showing no growth, divided by the MIC for that compound. The FIC index is the sum of the two FICs.
Background: Dilution methods test growth across graded concentrations, often in twofold steps.

Where two headings read alike, the source gives them in different places.

`O=C(O)CN[C@H](CN[C@@H](CC(=O)O)C(=O)O)C(=O)O` [AM-B, aspergillomarasime B]: the LD50 in series [1] is listed as 660 mg/kg.
On to `C[C@@H](O)[C@H]1C(=O)N2C(C(=O)O)=C(S[C@@H]3CN[C@H](C(=O)N(C)C)C3)[C@H](C)[C@H]12` [meropenem, reference compound], for which, in series [2], the “response of infection to meropenem monotherapy” value is listed as “resistant”. For the same compound, the “prevention of lethal infection” value in series [3] is on record as “unable to prevent lethal infection”. The MIC in series [4] (Klebsiella pneumoniae, N112218, read-out: MIC) was determined as 32 µg/mL; in series [4] it was 32 µg/mL.

The values are drawn from patent US10016383B2, “Inhibitors of metallo-β-lactamase-enzymes” (McMaster University, priority 2013, dated 2018).
